What was measured:
Type in all cases: cell-based
[1] = tested on: human peripheral blood monocytes; experiment: Activation of monocytes in vitro measured by production of tumor necrosis factor (ELISA); conditions: for TNF (pg/ml) at given Concentration of Compound: 24 Hours
Procedure: (§1) Human peripheral blood monocytes were isolated by density gradient centrifugation as noted in Example 13. The cell number was adjusted to 5×10^5 cells per ml in RPM 1640 media containing 5% human AB negative serum. One ml containing 5×10^5 cells were placed in individual wells of a 24-well Plastek tissue culture plate. Various drugs in a volume of 0.5 ml were added at time zero. The cells were incubated at 37° C. in a 5% CO2 atmosphere. Aliquots (0.1 ml) of the supernatant were removed at 24 hours and frozen at -80° C. These samples were subsequently assayed for tumor necrosis factor (TNF) activity using a commercially available ELISA Assay from T-Cell Sciences (Cambridge, Mass.).
Human peripheral blood monocytes were isolated by density gradient centrifugation as described in Example 13. The cells were plated in 24-well microliter plates as described in Example 33. The compounds Were prepared in liposomes as described in Example 10, and assayed for TNF production, as described in Example 33. The results are set forth in Table 5, and show significant levels of TNF compared to controls.
as §1, with “of” for “of a”, “zero. The compounds were also formulated in liposomes as described in Example 10, and added in a volume of 0.5 ml to individual wells of a 24-well Plastek tissue culture plate.” for “zero.”, “-20°” for “-80°”, “TNF as described in Example 33 and Interleukin-1-beta (IL-1β)” for “tumor necrosis factor (TNF) activity”, “kit” for “Assay”, “Cistron (Pine Brook, N.J.).” for “T-Cell Sciences (Cambridge, Mass.).”

[2] = tested on: Human peripheral blood mononuclear cells; experiment: Activation of monocytes in vitro measured by in vitro tumor cell cytotoxicity
Procedure: Human peripheral blood mononuclear cells were isolated by density gradient centrifugation on 46% Percoll. 1×10^5 of the mononuclear cells were plated onto Falcon microliter plates and allowed to adhere for two hours. The non-adherent cells were removed and fresh media added. The cells were allowed to incubate for 24 hours after which various concentrations of the drug either alone or incorporated in liposomes was added. After 24 hours, the plates were washed and 1×10^4 I^125 labelled target cells were added. Following an additional 72 hours of coincubation, the plates were washed and the residual radioactivity determined. The specific cytotoxicity was calculated from the formula: [formula] The results of cytotoxicity assay of various compounds alone or incorporated in liposomes at various concentrations is given in Table 6.

[3] = tested on: human peripheral blood monocytes; experiment: Activation of monocytes in vitro measured by production of Interleukin-1-beta (ELISA); conditions: 24 Hours
Procedure: as §1, with “of” for “of a”, “zero. The compounds were also formulated in liposomes as described in Example 10, and added in a volume of 0.5 ml to individual wells of a 24-well Plastek tissue culture plate.” for “zero.”, “-20°” for “-80°”, “TNF as described in Example 33 and Interleukin-1-beta (IL-1β)” for “tumor necrosis factor (TNF) activity”, “kit” for “Assay”, “Cistron (Pine Brook, N.J.).” for “T-Cell Sciences (Cambridge, Mass.).”

[4] = Experiment 3, free drug in saline 0.1 μg/ml, 24 hours
[5] = Experiment 3, free drug in saline 1.0 μg/ml, 24 hours
[6] = Experiment 3, free drug in saline 10.0 μg/ml, 24 hours
[7] = PC/PG liposomes (7:3), 0.1 μg/ml
[8] = PC/PG liposomes (7:3), 1.0 μg/ml
[9] = PC/PG liposomes (7:3), 10.0 μg/ml
[10] = no formulation given (drug alone), 0.1 μg/ml
[11] = no formulation given (drug alone), 1.0 μg/ml
[12] = no formulation given (drug alone), 10.0 μg/ml
[13] = Table 7, Experiment 1, 0.01 μg/ml
[14] = Table 7, Experiment 1, 0.1 μg/ml
[15] = Table 7, Experiment 1, 1.0 μg/ml
[16] = Table 7, Experiment 1, 10.0 μg/ml
[17] = Table 8, Experiment 1, 0.01 μg/ml
[18] = Table 8, Experiment 1, 0.1 μg/ml
[19] = Table 8, Experiment 1, 1.0 μg/ml
[20] = Table 8, Experiment 1, 10.0 μg/ml
[21] = Table 9, Experiment 2, 0.1 μg/ml
[22] = Table 9, Experiment 2, 1.0 μg/ml
[23] = Table 9, Experiment 2, 10.0 μg/ml

| SMILES | TNF Level [1, 4] [pg/mL] | TNF Level [1, 5] [pg/mL] | TNF Level [1, 6] [pg/mL] | TNF (pg/ml) at given Concentration of Compound [1, 14] [pg/mL] | TNF (pg/ml) at given Concentration of Compound [1, 15] [pg/mL] | TNF (pg/ml) at given Concentration of Compound [1, 16] [pg/mL] | IL-1-beta (pg/ml) at given Concentration of Compound [3, 17] [pg/mL] | IL-1-beta (pg/ml) at given Concentration of Compound [3, 18] [pg/mL] | IL-1-beta (pg/ml) at given Concentration of Compound [3, 19] [pg/mL] | IL-1-beta (pg/ml) at given Concentration of Compound [3, 20] [pg/mL] | further results |
| --- | --- | --- | --- | --- | --- | --- | --- | --- | --- | --- | --- |
| CCCCCCCCCCCCCCCC(=O)OCC(COC(=O)CCCCCCCCCCCCCCC)NC(=O)C(C)NC(=O)CCC(NC(=O)C(C)NC(=O)C(C)OC1C(NC(C)=O)C(O)OC(CO)C1OC1OC(CO)C(O)C(O)C1NC(C)=O)C(N)=O [Compound IA, 4-O-[2-acetamido-2-deoxy-β-D-glucopyranosyl]-2-acetamido-2-deoxy-3-O-[D-2-propanoyl-L-alanyl-D-isoglutaminyl-L-alanyl-2-(1,3-dipalmitoyloxy)propylamide]-D-glucopyranose] | 280 | 1000 | 1680 | – | – | – | – | – | – | – | TNF Level ([1]; Table 5, compound incorporated in liposomes, 0.1 μg/ml): 430 pg/mL; TNF Level ([1]; Table 5, compound incorporated in liposomes, 1.0 μg/ml): 800 pg/mL; TNF Level ([1]; Table 5, compound incorporated in liposomes, 10.0 μg/ml): 750 pg/mL; Cytotoxicity [2, 7]: 7.0%; Cytotoxicity [2, 8]: 7.0%; Cytotoxicity [2, 9]: 6.0%; Cytotoxicity ([2]; PC/PS liposomes (7:3), 0.1 μg/ml): 8.0%; Cytotoxicity ([2]; PC/PS liposomes (7:3), 1.0 μg/ml): 5.0%; Cytotoxicity ([2]; PC/PS liposomes (7:3), 10.0 μg/ml): 19.0%; Cytotoxicity [2, 10]: 1.0%; Cytotoxicity [2, 11]: 4.0%; Cytotoxicity [2, 12]: 3.0% |
| CCCCCCCCCCCCCCCC(=O)OCC(COC(=O)CCCCCCCCCCCCCCC)NC(=O)C(C)NC(=O)CCC(NC(=O)C(C)NC(=O)C(C)OC1C(NC(C)=O)C(O)OC(CO)C1OC1OC(CO)C(O)C(O)C1NC(C)=O)C(N)=O [Compound IB, GlcNAcMurNAc-L-Ala-D-isoGln-D-Ala-NHDPG] | 180 | 350 | 1980 | – | – | – | – | – | – | – | – |
| CCCCCCCCCCCCCCCC(=O)OCC(COC(=O)CCCCCCCCCCCCCCC)NC(=O)C(C)NC(=O)CCC(NC(=O)C(C)NC(=O)C(C)OC1C(NC(C)=O)C(O)OC(CO)C1OC1OC(CO)C(O)C(O)C1NC(C)=O)C(N)=O [Compound IC, GlcNAcMurNAc-D-Ala-D-isoGln-D-Ala-NHDPG] | 280 | 300 | 250 | – | – | – | – | – | – | – | Cytotoxicity [2, 7]: 10.0%; Cytotoxicity [2, 8]: 4.0%; Cytotoxicity [2, 9]: 12.0%; Cytotoxicity [2, 10]: 5.0%; Cytotoxicity [2, 11]: 16.0%; Cytotoxicity [2, 12]: 15.0% |
| CCCCCCCCCCCCCCCC(=O)OCC(COC(=O)C(C)NC(=O)CCC(NC(=O)C(C)NC(=O)C(C)OC1C(NC(C)=O)C(O)OC(CO)C1OC1OC(CO)C(O)C(O)C1NC(C)=O)C(N)=O)OC(=O)CCCCCCCCCCCCCCC [Compound IIB, 4-O-[2-acetamido-2-deoxy-β-D-glucopyranosyl]-2-acetamido-2-deoxy-3-O-[D-2-propanoyl-L-alanyl-D-isoglutaminyl-D-alanyl-1,2-dipalmitoyl-sn-glycerol]-D-glucopyranose] | 250 | 500 | 1600 | – | – | – | – | – | – | – | – |
| CCCCCCCCCCCCCCCC(=O)OCC(COC(=O)C(C)NC(=O)CCC(NC(=O)C(C)NC(=O)C(C)OC1C(NC(C)=O)C(O)OC(CO)C1OC1OC(CO)C(O)C(O)C1NC(C)=O)C(N)=O)OC(=O)CCCCCCCCCCCCCCC [Compound IIC, GlcNAcMurNAc-D-Ala-D-isoGln-D-Ala-DPG] | – | – | – | – | – | – | – | – | – | – | TNF Level ([1]; Experiment 4, free drug in saline 0.1 μg/ml, 24 hours): 40 pg/mL; TNF Level ([1]; Experiment 4, free drug in saline 1.0 μg/ml, 24 hours): 110 pg/mL; TNF Level ([1]; Experiment 4, free drug in saline 10.0 μg/ml, 24 hours): 450 pg/mL |
| CC(=O)NC1C(OC2C(CO)OC(O)C(NC(C)=O)C2OC(C)C(=O)NC(C(=O)NC(CCC(=O)O)C(N)=O)C(C)O)OC(CO)C(O)C1O [GlcNAcMurNAc-L-Thr-D-isoGln] | – | – | – | 440 | 1050 | 1050 | 50 | 70 | 230 | 630 | TNF (pg/ml) at given Concentration of Compound [1, 13]: 200 pg/mL |
| CCCCCCCCCCCCCCCC(=O)OCC(COC(=O)CCCCCCCCCCCCCCC)NC(=O)C(C)NC(=O)CCC(NC(=O)C(NC(=O)C(C)OC1C(NC(C)=O)C(O)OC(CO)C1OC1OC(CO)C(O)C(O)C1NC(C)=O)C(C)O)C(N)=O [ID, GlcNAcMurNAc-F-Thr-D-isoGln-F-Ala-NHDPG] | – | – | – | 0 | 250 | 1060 | 10 | 16 | 8 | 90 | – |
| CCCCCCCCCCCCCCCC(=O)OCC(COC(=O)C(C)NC(=O)CCC(NC(=O)C(NC(=O)C(C)OC1C(NC(C)=O)C(O)OC(CO)C1OC1OC(CO)C(O)C(O)C1NC(C)=O)C(C)O)C(N)=O)OC(=O)CCCCCCCCCCCCCCC [IID, GlcNAcMurNAc-F-Thr-D-isoGln-F-Ala-DPG] | – | – | – | 320 | 1080 | 2150 | 70 | 14 | 170 | 690 | TNF (pg/ml) at given Concentration of Compound [1, 13]: 70 pg/mL |
| CCCCCCCCCCCCCCCC(=O)OCC(COC(=O)C(C)NC(=O)CCC(NC(=O)C(CO)NC(=O)C(C)OC1C(NC(C)=O)C(O)OC(CO)C1OC1OC(CO)C(O)C(O)C1NC(C)=O)C(N)=O)OC(=O)CCCCCCCCCCCCCCC [IIE, GlcNAcMurNAc-F-Ser-D-isoGln-F-Ala-DPG] | – | – | – | – | – | – | – | – | – | – | TNF (pg/ml) at given Concentration of Compound [1, 21]: 150 pg/mL; TNF (pg/ml) at given Concentration of Compound [1, 22]: 800 pg/mL; TNF (pg/ml) at given Concentration of Compound [1, 23]: 1500 pg/mL |
| CCCCCCCCCCCCCCCC(=O)OCC(COC(=O)C(NC(=O)CCC(NC(=O)C(C)NC(=O)C(C)OC1C(NC(C)=O)C(O)OC(CO)C1OC1OC(CO)C(O)C(O)C1NC(C)=O)C(N)=O)C(C)C)OC(=O)CCCCCCCCCCCCCCC [IIG, GlcNAcMurNAc-F-Ala-D-isoGln-F-Val-DpG] | – | – | – | – | – | – | – | – | – | – | TNF (pg/ml) at given Concentration of Compound [1, 21]: 1150 pg/mL; TNF (pg/ml) at given Concentration of Compound [1, 22]: 1500 pg/mL; TNF (pg/ml) at given Concentration of Compound [1, 23]: 1400 pg/mL |

From patent US5416070A, “Composition for macrophage activation” (ImmunoTherapeutics, Inc., priority 1990, dated 1995)
